In ChEMBL document CHEMBL3352047, “Hybrids of phenylsulfonylfuroxan and coumarin as potent antitumor agents” (J Med Chem, 2014):
Active and inactive are the calls of the source. No cut-off for these calls is given here.

Assays:
[1] = Antiproliferative activity against human T29 cells after 48 hrs by MTT assay; conditions: T29, 48 h
A2780 [2] = assay: Antiproliferative activity against human A2780 cells after 48 hrs by MTT assay; conditions: A2780, 48 h
HUVEC [3] = assay: cells; conditions: Homo sapiens, 48 h
Description: Antiproliferative activity against HUVEC after 48 hrs by MTT assay

[4] = Antiproliferative activity against human A2780/CDDP cells after 48 hrs by MTT assay
A549 = assay: cells; conditions: Homo sapiens, A549, 48 h
HeLa = assay: cells; conditions: Homo sapiens, 48 h
A2780 [5] = assay: Induction of nitric oxide generation in human A2780 cells at 100 uM after 150 mins by Griess assay; type: functional
[6] = Antiproliferative activity against cisplatin-resistant human SKOV3 cells after 48 hrs by MTT assay; conditions: SK-OV-3, 48 h
[7] = Acute toxicity in KM mouse assessed as survival at 250 mg/kg, ip measured on day 14 relative to vehicle-treated control; type: organism-based; set-up: dose 250 mg/kg, route intraperitoneal; conditions: in vivo
[8] = Acute toxicity in KM mouse assessed as survival at 300 mg/kg, ip measured on day 14 relative to vehicle-treated control; type: organism-based; set-up: dose 300 mg/kg, route intraperitoneal; conditions: in vivo
A2780 [9] = assay: Cell cycle arrest in human A2780 cells assessed as reduction at S phase at 20 to 80 nM after 24 hrs by propidium iodide staining-based flow cytometry; type: functional
A2780 [10] = assay: Antitumor activity against human A2780 cells xenografted in BALB/C nude mouse at 30 mg/kg, ip administered once every 3 days measured on day 15 relative to vehicle-treated control; type: functional; conditions: route intraperitoneal, read-out: TGI
[11] = Antiproliferative activity against human SKOV3 cells after 48 hrs by MTT assay; conditions: SK-OV-3, 48 h
A2780 [12] = assay: Induction of apoptosis in human A2780 cells assessed as increase in Bax protein expression after 24 hrs by Western blotting analysis; type: functional, cell-based
[13] = Acute toxicity in KM mouse assessed as survival at 275 mg/kg, ip measured on day 14 relative to vehicle-treated control; type: organism-based; set-up: dose 275 mg/kg, route intraperitoneal; conditions: in vivo
T29 = assay: Induction of nitric oxide generation in human T29 cells at 100 uM after 150 mins by Griess assay; type: functional, cell-based
A2780 [14] = assay: Induction of apoptosis in human A2780 cells assessed as late apoptotic cells at 20 to 80 nM after 24 hrs by annexin-V/propidium iodide staining-based flow cytometry; type: functional
HUVEC [15] = assay: Antiangiogenic activity against HUVEC assessed as suppression of tubule formation at 10 nM after overnight incubation by matrigel assay; type: functional, cell-based; conditions: Homo sapiens
A2780 [16] = assay: Cell cycle arrest in human A2780 cells assessed as reduction at G0/G1 phase at 20 to 80 nM after 24 hrs by propidium iodide staining-based flow cytometry; type: functional
HUVEC [17] = assay: Antiangiogenic activity against HUVEC assessed as disruption of tubule formation at 100 nM after overnight incubation by matrigel assay; type: functional, cell-based; conditions: Homo sapiens
[18] = Acute toxicity in KM mouse assessed as survival at 500 mg/kg, ip measured on day 14 relative to vehicle-treated control; type: organism-based; set-up: dose 500 mg/kg, route intraperitoneal; conditions: in vivo
A2780 [19] = assay: Induction of nitric oxide generation in human A2780 cells at 100 to 1000 nM after 1 hr by DAF-FM DA staining-based assay; type: functional, cell-based
A2780 [20] = assay: Induction of nitric oxide generation in human A2780 cells at 500 nM after 24 hrs by Griess assay in presence of hemoglobin; type: functional, cell-based
[21] = Acute toxicity in KM mouse assessed as survival at 200 mg/kg, ip measured on day 14 relative to vehicle-treated control; type: organism-based; set-up: dose 200 mg/kg, route intraperitoneal; conditions: in vivo
A2780 [22] = assay: Cell cycle arrest in human A2780 cells assessed as accumulation at G2/M phase after 24 hrs by propidium iodide staining-based flow cytometry; type: functional
MDA-MB-231 [23] = assay: Anticlonogenic activity against human gemcitabine-resistant human MDA-MB-231 cells assessed as inhibition of colony formation of cells after 48 hrs by gentian violet staining-based assay; type: functional, cell-based
A2780 [24] = assay: Induction of apoptosis in human A2780 cells assessed as reduction in Bcl-2 protein expression after 24 hrs by Western blotting analysis; type: functional, cell-based
A2780 [25] = assay: Induction of apoptosis in human A2780 cells assessed as increase in PARP-1 cleavage at 100 to 1000 nM after 24 hrs by Western blotting analysis; type: functional, cell-based
A2780 [26] = assay: Induction of apoptosis in human A2780 cells assessed as early apoptotic cells at 20 to 80 nM after 24 hrs by annexin-V/propidium iodide staining-based flow cytometry; type: functional
[27] = Acute toxicity in KM mouse assessed as survival at 225 mg/kg, ip measured on day 14 relative to vehicle-treated control; type: organism-based; set-up: dose 225 mg/kg, route intraperitoneal; conditions: in vivo
A2780 [28] = assay: Induction of apoptosis in human A2780 cells assessed as increase in p53 phosphorylation at 100 to 1000 nM after 24 hrs by Western blotting analysis; type: functional, cell-based
[29] = Acute toxicity in ip dosed KM mouse; type: organism-based; conditions: in vivo
A2780 [30] = assay: Antitumor activity against human A2780 cells xenografted in BALB/C nude mouse assessed as loss in tumor weight at 15 to 30 mg/kg, ip administered once every 3 days measured after 15 days relative to vehicle-treated control; type: functional, organism-based
A2780 [31] = assay: Anticlonogenic activity against human A2780 cells assessed as inhibition of colony formation of cells at 5 to 20 nM after 48 hrs by gentian violet staining-based assay; type: functional, cell-based
A2780 [32] = assay: Antitumor activity against human A2780 cells xenografted in BALB/C nude mouse at 15 mg/kg, ip administered once every 3 days measured on day 15 relative to vehicle-treated control; type: functional; conditions: route intraperitoneal, read-out: TGI
A2780 [33] = assay: Anticlonogenic activity against human A2780 cells assessed as inhibition of colony formation of cells after 48 hrs by gentian violet staining-based assay; type: functional, cell-based
A2780 [34] = assay: Induction of nitric oxide generation in human A2780 cells after 1 hr by DAF-FM DA staining-based assay; type: functional, cell-based
A2780/CDDP = assay: Induction of nitric oxide generation in human A2780/CDDP cells at 500 nM after 24 hrs by Griess assay in presence of hemoglobin; type: functional, cell-based
A2780 [35] = assay: Cell cycle arrest in human A2780 cells assessed as accumulation at G2/M phase at 20 to 80 nM after 24 hrs by propidium iodide staining-based flow cytometry; type: functional
MDA-MB-231 [36] = assay: Anticlonogenic activity against human gemcitabine-resistant human MDA-MB-231 cells assessed as inhibition of colony formation of cells at 20 to 80 nM after 48 hrs by gentian violet staining-based assay; type: functional, cell-based
MDA-MB-231 [37] = assay: Antiproliferative activity against gemcitabine-resistant human MDA-MB-231 cells after 48 hrs by MTT assay; conditions: MDA-MB-231, 48 h
MDA-MB-231 [38] = assay: Antiproliferative activity against human MDA-MB-231 cells after 48 hrs by MTT assay; conditions: MDA-MB-231, 48 h

## COCCOc1no[n+]([O-])c1S(=O)(=O)c1ccccc1
[1]
  IC50: > 2 µM
A2780 [2]
  IC50: > 2 µM

## O=S(=O)(c1ccccc1)c1no[n+]([O-])c1S(=O)(=O)c1ccccc1
HUVEC [3]
  IC50: 4.33 µM
[4]
  IC50: 0.89 µM
A549
  IC50: 2.35 µM
HeLa
  IC50: 1.45 µM
A2780 [2]
  IC50: 0.88 µM

## CCc1cc(=O)c2ccc(OCCOc3no[n+]([O-])c3S(=O)(=O)c3ccccc3)cc2o1
HUVEC [3]
  IC50: 1.03 µM
[4]
  IC50: 2.88 µM
A549
  IC50: 5.45 µM
HeLa
  IC50: 0.83 µM
A2780 [2]
  IC50: 3.33 µM

## Cc1cc(=O)oc2cc(Oc3no[n+]([O-])c3S(=O)(=O)c3ccccc3)ccc12
HUVEC [3]
  IC50: 5.43 µM
[4]
  IC50: 3.15 µM
A549
  IC50: 5.55 µM
HeLa
  IC50: > 20 µM
A2780 [2]
  IC50: 2.99 µM

## Cc1cc(=O)oc2cc(OCCCCOc3no[n+]([O-])c3S(=O)(=O)c3ccccc3)ccc12
HUVEC [3]
  IC50: 0.25 µM
[4]
  IC50: 0.99 µM
A549
  IC50: 0.65 µM
HeLa
  IC50: 0.32 µM
A2780 [2]
  IC50: 0.66 µM

## CCc1cc(=O)c2ccc(OCCCOc3no[n+]([O-])c3S(=O)(=O)c3ccccc3)cc2o1
HUVEC [3]
  IC50: 0.35 µM
[4]
  IC50: 0.89 µM
A549
  IC50: 0.4 µM
HeLa
  IC50: 0.19 µM
A2780 [2]
  IC50: 0.29 µM

## Cc1cc(=O)oc2cc(Sc3cccc(Cl)n3)ccc12
HUVEC [3]
  IC50: 5.89 µM
[4]
  IC50: 1 µM
A549
  IC50: 3.25 µM
HeLa
  IC50: 1.48 µM
A2780 [5]
  Activity: inactive
A2780 [2]
  IC50: 1.35 µM

## Cc1cc(=O)oc2cc(OCCOc3no[n+]([O-])c3S(=O)(=O)c3ccccc3)ccc12
[6]
  IC50: 0.14 µM
[7]
  survival at 14 day: 60%
[8]
  survival at 14 day: 30%
HUVEC [3]
  IC50: 0.034 µM
A2780 [9]
  Activity: Active
A2780 [10]
  inhibition in vivo at 30 mg/kg: 65.5%
[11]
  IC50: 0.083 µM
[4]
  IC50: 0.062 µM
A2780 [12]
  Activity: Dose-dependent effect
[13]
  survival at 14 day: 40%
T29
  Activity: Active
A549
  IC50: 0.024 µM
HeLa
  IC50: 0.053 µM
A2780 [14]
  Activity: 2.5%
HUVEC [15]
  Activity: Active
A2780 [16]
  Activity: Active
HUVEC [17]
  Activity: Active
[18]
  survival at 14 day: 10%
A2780 [19]
  Activity: Active
A2780 [20]
  Activity: inactive
[21]
  survival at 14 day: 100%
[1]
  IC50: 0.014 µM
A2780 [22]
  Activity: Dose-dependent effect
MDA-MB-231 [23]
  inhibition: Dose-dependent effect
A2780 [24]
  Activity: Dose-dependent effect
A2780 [25]
  Activity: Active
A2780 [26]
  Activity: 2.5%
[27]
  survival at 14 day: 90%
A2780 [28]
  Activity: Active
[29]
  LD50: 264 mg/kg
A2780 [5]
  Activity: 97 µM
A2780 [30]
  Activity: Active
A2780 [31]
  inhibition: Active
A2780 [32]
  inhibition in vivo at 15 mg/kg: 55.8%
A2780 [33]
  inhibition: Dose-dependent effect
A2780 [34]
  Activity: Dose-dependent effect
A2780 [2]
  IC50: 0.014 µM
A2780/CDDP
  Activity: inactive
A2780 [35]
  Activity: 64.9%
MDA-MB-231 [36]
  inhibition: Active

## CCc1cc(=O)c2ccc(Oc3no[n+]([O-])c3S(=O)(=O)c3ccccc3)cc2o1
HUVEC [3]
  IC50: 3.35 µM
[4]
  IC50: 2.99 µM
A549
  IC50: 3.29 µM
HeLa
  IC50: > 20 µM
A2780 [2]
  IC50: 0.13 µM

## Nc1ccn([C@@H]2O[C@H](CO)[C@@H](O)C2(F)F)c(=O)n1 [GEMCITABINE]
MDA-MB-231 [37]
  IC50: > 10 µM
MDA-MB-231 [38]
  IC50: 0.025 µM

## Cc1cc(=O)oc2cc(O)ccc12 [HYMECROMONE]
[1]
  IC50: > 2 µM
A2780 [2]
  IC50: > 2 µM
